# Where two headings read alike, the source gives them in different places.
# Molecular target: T1, human NaPi-IIb (Homo sapiens, UniProt O95436)
# T1 construct: expressed in transfected cells
# T1 sequence (O95436 1-690): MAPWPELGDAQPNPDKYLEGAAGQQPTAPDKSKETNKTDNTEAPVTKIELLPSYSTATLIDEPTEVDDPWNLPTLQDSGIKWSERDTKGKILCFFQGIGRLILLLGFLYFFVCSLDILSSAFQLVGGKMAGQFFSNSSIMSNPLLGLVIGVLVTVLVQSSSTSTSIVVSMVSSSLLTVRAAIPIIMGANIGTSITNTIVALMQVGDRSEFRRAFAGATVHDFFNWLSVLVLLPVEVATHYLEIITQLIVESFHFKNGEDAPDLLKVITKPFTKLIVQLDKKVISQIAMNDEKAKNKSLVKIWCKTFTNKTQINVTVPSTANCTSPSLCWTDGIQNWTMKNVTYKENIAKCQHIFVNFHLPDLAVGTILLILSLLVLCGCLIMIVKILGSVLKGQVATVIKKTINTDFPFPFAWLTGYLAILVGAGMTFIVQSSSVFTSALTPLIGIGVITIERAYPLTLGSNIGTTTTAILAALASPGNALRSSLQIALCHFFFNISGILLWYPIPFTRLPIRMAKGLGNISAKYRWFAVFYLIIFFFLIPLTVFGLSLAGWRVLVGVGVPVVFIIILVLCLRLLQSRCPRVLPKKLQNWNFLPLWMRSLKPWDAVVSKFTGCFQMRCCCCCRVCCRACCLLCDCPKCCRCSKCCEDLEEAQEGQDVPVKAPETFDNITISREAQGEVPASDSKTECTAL
# Test: Inhibitory effect on 33PO4 uptake into human NaPi-IIb-expressing CHO cells
# Assay type: cell-based
# How it was run: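 Uptake of ³³PO4 was measured by scintillation counting after ice-cold buffer A washes. Cells were CHO stably expressing human NaPi-IIb, seeded overnight, and exposed to ³³PO4 in buffer A at room temperature.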
# [1] = read-out: IC50 against 33PO4 uptake into human NaPi-IIb-expressing cells
IC50 [1] [µM],IC50 (read-out: IC50) [µM],Compound
21,–,"CN1N(Cc2ccc(OCCNC(CC(=O)O)CC(=O)O)c(F)c2F)C(=O)C(C(=O)Nc2ccc(C(F)(F)F)cc2-c2cc(C(F)(F)F)ncn2)=C(O)C12CCCC2 [Example 382, 3-[2-[2,3-Difluoro-4-[[10-hydroxy-6-methyl-8-oxo-9-[[4-(trifluoromethyl)-2-[6-(trifluoromethyl)pyrimidin-4-yl]phenyl]carbamoyl]-6,7-diazaspiro[4.5]dec-9-en-7-yl]methyl]phenoxy]ethylamino]pentanedioate]"
–,9.8,CN1N(Cc2cccc(F)c2F)C(=O)C(C(=O)Nc2ccc(Cl)cc2-c2cc(C(F)(F)F)ncn2)=C(O)C12CCC2 [Example 255]
–,1,C[C@]12CCCN1N(Cc1c(F)cccc1Cl)C(=O)C(C(=O)Nc1ccc(C(F)(F)F)cc1-c1ccc(C(F)(F)F)nc1)=C2O [Example 204]
–,7.6,CC(C)[C@@H]1C(O)=C(C(=O)Nc2ccc(Cl)cc2-c2ccc(C(F)(F)F)nc2)C(=O)N(Cc2cccc(F)c2F)N1C [Example 251]
–,6.2,C[C@]12CCCN1N(Cc1cccc(F)c1F)C(=O)C(C(=O)Nc1ccc(C(F)(F)F)cc1-c1ccc(C(F)(F)F)nc1Br)=C2O [Example 85]
–,4.1,C[C@]12CCCN1N(Cc1cccc(F)c1F)C(=O)C(C(=O)Nc1ccc(C(F)(F)F)cc1-c1cnc(Cl)cn1)=C2O [Example 74]
–,4.3,"C[C@]12CCCN1N(Cc1cccc(F)c1F)C(=O)C(C(=O)Nc1ccc(C(F)(F)F)cc1-c1cnc(C#N)c([N+](=O)[O-])c1)=C2O [Example 99, (4aR)—N-[2-(6-Cyano-5-nitropyridin-3-yl)-4-(trifluoromethyl)phenyl]-1-[(2,3-difluorophenyl)methyl]-4-hydroxy-4a-methyl-2-oxo-6,7-dihydro-5H-pyrrolo[1,2-b]pyridazine-3-carboxamide]"
29,–,CN1N(Cc2ccc(OCCOCCOCCOCCC(=O)NCC(O)CO)c(F)c2F)C(=O)C(C(=O)Nc2ccc(C(F)(F)F)cc2-c2cc(C(F)(F)F)ncn2)=C(O)C12CCCC2 (stereo not shown) [Example 424]
24.8,–,"CN1N(Cc2ccc(OCCOCCNCC(O)CO)c(F)c2F)C(=O)C(C(=O)Nc2ccc(C(F)(F)F)cc2-c2cc(C(F)(F)F)ncn2)=C(O)C12CCCC2 (stereo not shown) [Example 419, 7-[[4-[2-[2-(2,3-Dihydroxypropylamino)ethoxy]ethoxy]-2,3-difluorophenyl]methyl]-10-hydroxy-6-methyl-8-oxo-N-[4-(trifluoromethyl)-2-[6-(trifluoromethyl)pyrimidin-4-yl]phenyl]-6,7-diazaspiro[4.5]dec-9-ene-9-carboxamide]"

# The next lines start with the compound.
Compound,IC50 [1] [µM],IC50 (read-out: IC50) [µM]
C[C@]12CCCN1N(Cc1c(F)cc(C#CCN3CCOCC3)cc1F)C(=O)C(C(=O)Nc1ccc(C(F)(F)F)cc1-c1ccc(C(F)(F)F)nc1)=C2O [Example 132],–,5
C[C@]12CCCN1N(Cc1ccc(C#N)cc1)C(=O)C(C(=O)Nc1cc(F)c(Br)c(F)c1)=C2O [Example 222],–,17.6
"C[C@]12CCCN1N(Cc1cccc(F)c1F)C(=O)C(C(=O)Nc1ccc(C(F)(F)F)cc1-c1cnc(Cl)c(C#N)c1)=C2O [Example 68, (4aR)—N-[2-(6-Chloro-5-cyanopyridin-3-yl)-4-(trifluoromethyl)phenyl]-1-[(2,3-difluorophenyl)methyl]-4-hydroxy-4a-methyl-2-oxo-6,7-dihydro-5H-pyrrolo[1,2-b]pyridazine-3-carboxamide]",–,2.6
CCN1[C@@H](C(C)(C)C)C(O)=C(C(=O)Nc2cc(F)c(Br)c(F)c2)C(=O)N1Cc1cccc(F)c1F [Example 246],–,8.6
CN1N(Cc2cccc(F)c2F)C(=O)C(C(=O)Nc2ccc(C(F)(F)F)cc2-c2ncnc(C#N)c2Cl)=C(O)C1(C)C [Example 312],–,6.3
CN1N(Cc2ccc(OCCCOC[C@H](O)CO)c(F)c2F)C(=O)C(C(=O)Nc2ccc(C(F)(F)F)cc2-c2cc(C(F)(F)F)ncn2)=C(O)C12CCC2 [Example 389],24.6,–
C[C@]12CCCN1N(Cc1c(F)cc(C#CCCOC[C@H](O)CO)cc1F)C(=O)C(C(=O)Nc1ccc(C(F)(F)F)cc1-c1ccc(C(F)(F)F)nc1)=C2O [Example 145],–,7.1
